From patent US20260137706A1, “METHODS OF TREATING INFLAMMATORY DISEASES” (INTERLINE THERAPEUTICS, INC., priority 2023, published 2026)

Tests used:
[1] = test system: NF-κB pathway (SEAP) in THP1-Dual cells; assay: THP-1 Dual cell SEAP assay (L18-MDP stimulated); format: cell-based; conditions: Homo sapiens, THP1-Dual, read-out: NF-κB THP1 IC50 bin
Summary of the method: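 IC50 values derive from non-linear regression of % inhibition, calculated against DMSO/L18-MDP-treated wells after media-only subtraction. NF-κB SEAP activity was read at OD 620-655 nm (QUANTI-Blue, 2 h, 37 °C) from supernatants of THP1-Dual cells. Cells had been compound-treated 30 min before overnight (20-24 h) stimulation with 10 ng/mL final L18-MDP.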

[2] = target: T1, binding of His-XIAP(BIR2)-avi fusion protein to GST-RIPK2 fusion protein (RIPK2/XIAP) (Homo sapiens, UniProt O43353); assay: RIPK2-XIAP binding competition PPI assay (TR-FRET); conditions: RIPK2/XIAP binding competition PPI assay; for Emax: Amax, read-out: PPI Amax bin; for IC50: read-out: PPI IC50 bin
T1 construct: made in house; host or cells: baculovirus infected Sf9 cells
Summary of the method: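 Compounds (in DMSO, 100-fold stock) incubated 120 min at 23 °C with 1 nM GST-RIPK2 (aa 1-310) and 25 nM His-XIAP(BIR2 aa 152-231)-avi, plus anti-His-XL665 and anti-GST-Tb, in pH 7.5 Tris buffer. Read-out: 665/520 nm emission ratio. Normalized to no-inhibitor (0%) and 50 nM GSK583 (−100%); Amax binned A–D.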

[3] = target: T2, GST-RIPK2 fusion protein (human RIPK2, amino acids 1-310) (Homo sapiens, UniProt O43353); assay: RIPK2 binding competition assay (TR-FRET, Tracer 199 displacement); conditions: 10 nM Tracer 199, 1 nM GST-RIPK2, read-out: RIPK2 IC50
T2 construct: made in house; host or cells: baculovirus infected Sf9 cells
Summary of the method: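 IC50 derived from the TR-FRET emission ratio (665/620 nm, 337 nm excitation), normalized with no-inhibitor and no-enzyme controls. Incubation 45 min at 22 °C, pH 7.5 Tris buffer, with final 10 nM tracer, 1 nM Sf9-expressed GST-RIPK2 fragment (aa 1-310) and 0.5 nM Tb-labelled anti-GST.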

T2 sequence (O43353 1-310): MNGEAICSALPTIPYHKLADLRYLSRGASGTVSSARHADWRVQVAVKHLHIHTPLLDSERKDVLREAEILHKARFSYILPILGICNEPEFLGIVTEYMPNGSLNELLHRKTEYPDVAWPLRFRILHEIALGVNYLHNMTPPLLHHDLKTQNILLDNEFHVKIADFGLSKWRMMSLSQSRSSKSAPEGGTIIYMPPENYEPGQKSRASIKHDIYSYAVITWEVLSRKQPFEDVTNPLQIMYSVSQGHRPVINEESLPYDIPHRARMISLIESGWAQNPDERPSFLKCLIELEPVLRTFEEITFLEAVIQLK
T1 sequence (O43353 1-310 limits assumed): as the sequence (O43353 1-310) above

Compound	IC50 [1]	Emax [2]	IC50 [2]	IC50 [3]
Cc1cc2cc(-c3cnc4cc(OCCO)c(S(=O)(=O)C(C)(C)C)cn34)cnc2[nH]1 [Example 232, 2-((6-(tert-butylsulfonyl)-3-(2-methyl-1H-pyrrolo[2,3-b]pyridin-5-yl)imidazo[1,2-a]pyridin-7-yl)oxy)ethan-1-ol]	> 1000 nM	30 to 55%	< 1 nM	2.5 to 20 nM
COc1cc2ncc(-c3cc(F)c(N)nc3F)n2cc1S(=O)(=O)C1(C)CCOCC1 [Example 72, 3,6-difluoro-5-(7-methoxy-6-((4-methyltetrahydro-2H-pyran-4-yl)sulfonyl)imidazo[1,2-a]pyridin-3-yl)pyridin-2-amine]	> 1000 nM	> 80%	> 20 nM	> 20 nM
CC(C)(C)S(=O)(=O)c1cc2c(-c3cc(Cl)c(N)nc3F)cnn2cc1OCCO [Example 15, 2-((3-(6-amino-5-chloro-2-fluoropyridin-3-yl)-5-(tert-butylsulfonyl)pyrazolo[1,5-a]pyridin-6-yl)oxy)ethan-1-ol]	50 to 250 nM	> 80%	1 to 2.5 nM	1 to 2.5 nM
CCS(=O)(=O)Nc1cc(-c2cnn3cc(OC)c(N4C(=O)OCC4(C)C)nc23)cc(F)c1OC [Example 131, N-(5-(5-(4,4-dimethyl-2-oxooxazolidin-3-yl)-6-methoxypyrazolo[1,5-a]pyrimidin-3-yl)-3-fluoro-2-methoxyphenyl)ethanesulfonamide]	250 to 1000 nM	> 80%	2.5 to 20 nM	2.5 to 20 nM
C[C@@H](O)COc1cc2ncc(-c3cc4cc[nH]c4nc3F)n2cc1S(=O)(=O)C(C)(C)C [Example 251, (R)-1-((6-(tert-butylsulfonyl)-3-(6-fluoro-1H-pyrrolo[2,3-b]pyridin-5-yl)imidazo[1,2-a]pyridin-7-yl)oxy)propan-2-ol]	< 50 nM	> 80%	< 1 nM	< 1 nM
CC(C)(C)S(=O)(=O)c1cn2c(-c3cc4c(F)c[nH]c4nc3F)cnc2cc1OCCO [Example 236, 2-((6-(tert-butylsulfonyl)-3-(3,6-difluoro-1H-pyrrolo[2,3-b]pyridin-5-yl)imidazo[1,2-a]pyridin-7-yl)oxy)ethan-1-ol]	< 50 nM	> 80%	< 1 nM	< 1 nM
CCCS(=O)(=O)Nc1cc(-c2cnc3cc(OC)c(C(=O)N4CCNCC4)cn23)cc(F)c1OC [Example 191, N-(3-fluoro-2-methoxy-5-(7-methoxy-6-(piperazine-1-carbonyl)imidazo[1,2-a]pyridin-3-yl)phenyl)propane-1-sulfonamide]	> 1000 nM	> 80%	2.5 to 20 nM	2.5 to 20 nM
COc1cc2ncc(-c3ccc4nc(N)oc4c3)n2cc1S(=O)(=O)C(C)(C)C [Example 96, 6-(6-(tert-butylsulfonyl)-7-methoxyimidazo[1,2-a]pyridin-3-yl)benzo[d]oxazol-2-amine]	250 to 1000 nM	< 30%	> 20 nM	2.5 to 20 nM
COc1c(F)cc(-c2cnc3cc(OC[C@H](C)CO)c(S(=O)(=O)C(C)(C)C)cn23)cc1NS(C)(=O)=O [Example 183, (R)-N-(5-(6-(tert-butylsulfonyl)-7-(3-hydroxy-2-methylpropoxy)imidazo[1,2-a]pyridin-3-yl)-3-fluoro-2-methoxyphenyl)methanesulfonamide]	< 50 nM	55 to 80%	< 1 nM	< 1 nM
CCC(C)(C)S(=O)(=O)c1cn2c(-c3cc(F)c(N)nc3F)cnc2cc1OC [Example 69, 3,6-difluoro-5-(7-methoxy-6-(tert-pentylsulfonyl)imidazo[1,2-a]pyridin-3-yl)pyridin-2-amine]	250 to 1000 nM	> 80%	2.5 to 20 nM	2.5 to 20 nM
COc1cc2ncc(-c3cc(F)c(OC)c(NS(=O)(=O)CC(F)(F)F)c3)n2cc1S(=O)(=O)C(C)(C)C [Example 143, N-(5-(6-(tert-butylsulfonyl)-7-methoxyimidazo[1,2-a]pyridin-3-yl)-3-fluoro-2-methoxyphenyl)-2,2,2-trifluoroethane-1-sulfonamide]	250 to 1000 nM	55 to 80%	1 to 2.5 nM	1 to 2.5 nM
COc1cc2ncc(-c3ccn4nccc4c3)n2cc1S(=O)(=O)C(C)(C)C [Example 94, 6-(tert-butylsulfonyl)-7-methoxy-3-(pyrazolo[1,5-a]pyridin-5-yl)imidazo[1,2-a]pyridine]	250 to 1000 nM	< 30%	> 20 nM	2.5 to 20 nM
CCS(=O)(=O)Nc1cc(-c2cnc3cc(OCCO)c(S(=O)(=O)C(C)(C)C)cn23)cc(F)c1OC [Example 224, N-(5-(6-(tert-butylsulfonyl)-7-(2-hydroxyethoxy)imidazo [1,2-a]pyridin-3-yl)-3-fluoro-2-methoxyphenyl) ethanesulfonamide]	< 50 nM	> 80%	< 1 nM	< 1 nM
CC(C)(C)S(=O)(=O)c1cn2c(-c3cc(F)c(N)nc3F)cnc2cc1OCCN1CCNCC1 [Example 21, 5-(6-(tert-butylsulfonyl)-7-(2-(piperazin-1-yl)ethoxy)imidazo[1,2-a]pyridin-3-yl)-3,6-difluoropyridin-2-amine]	> 1000 nM	> 80%	2.5 to 20 nM	1 to 2.5 nM
COc1cc2ncc(-c3cc(F)c(OC)c4[nH]c(CN5CC(O)C5)nc34)n2cc1S(=O)(=O)C(C)(C)C [Example 185, 1-((4-(6-(tert-butylsulfonyl)-7-methoxyimidazo[1,2-a]pyridin-3-yl)-6-fluoro-7-methoxy-1H-benzo[d]imidazol-2-yl)methyl)azetidin-3-ol]	50 to 250 nM	30 to 55%	1 to 2.5 nM	2.5 to 20 nM
COc1cc2ncc(-c3cc(F)c(OC)c(NS(=O)(=O)c4cnn(C)c4C)c3)n2cc1S(=O)(=O)C(C)(C)C [Example 280, N-(5-(6-(tert-butylsulfonyl)-7-methoxyimidazo[1,2-a]pyridin-3-yl)-3-fluoro-2-methoxyphenyl)-1,5-dimethyl-1H-pyrazole-4-sulfonamide]	50 to 250 nM	> 80%	1 to 2.5 nM	1 to 2.5 nM
CC(C)(C)S(=O)(=O)c1cn2c(-c3cc(F)c(N)nc3F)cnc2cc1-c1cc[nH]n1 [Example 37, 5-(6-(tert-butylsulfonyl)-7-(1H-pyrazol-3-yl)imidazo[1,2-a]pyridin-3-yl)-3,6-difluoropyridin-2-amine]	> 1000 nM	> 80%	> 20 nM	> 20 nM
COc1cc2ncc(-c3cc(F)c(N)nc3F)n2cc1C1(O)CCN(C)CC1 [Example 74, 4-(3-(6-amino-2,5-difluoropyridin-3-yl)-7-methoxyimidazo[1,2-a]pyridin-6-yl)-1-methylpiperidin-4-ol]	> 1000 nM	> 80%	> 20 nM	> 20 nM
COc1cc(-c2cnc3cc(OCCO)c(S(=O)(=O)C(C)(C)C)cn23)cc(NS(=O)(=O)c2cnn(C)c2)c1OC [Example 245, N-(5-(6-(tert-butylsulfonyl)-7-(2-hydroxyethoxy)imidazo [1,2-a]pyridin-3-yl)-2,3-dimethoxyphenyl)-1-methyl-1H-pyrazole-4-sulfonamide]	< 50 nM	> 80%	< 1 nM	1 to 2.5 nM
COc1cc2ncc(-c3cc(F)c(OC)c(NS(=O)(=O)c4cccnc4)c3)n2cc1S(=O)(=O)C(C)(C)C [Example 141, N-(5-(6-(tert-butylsulfonyl)-7-methoxyimidazo[1,2-a]pyridin-3-yl)-3-fluoro-2-methoxyphenyl)pyridine-3-sulfonamide]	< 50 nM	> 80%	< 1 nM	< 1 nM
COc1cc2ncc(-c3cc(F)c(OC)c(NS(=O)(=O)c4ccn(C)n4)c3)n2cc1S(=O)(=O)C(C)(C)C [Example 134, N-(5-(6-(tert-butylsulfonyl)-7-methoxyimidazo[1,2-a]pyridin-3-yl)-3-fluoro-2-methoxyphenyl)-1-methyl-1H-pyrazole-3-sulfonamide]	< 50 nM	> 80%	< 1 nM	1 to 2.5 nM
CCOc1cc2ncc(-c3cc4cc[nH]c4nc3F)n2cc1S(=O)(=O)C(C)C [Example 238, 7-ethoxy-3-(6-fluoro-1H-pyrrolo[2,3-b]pyridin-5-yl)-6-(isopropylsulfonyl) imidazo[1,2-a]pyridine]	50 to 250 nM	> 80%	1 to 2.5 nM	1 to 2.5 nM
C[C@H](O)COc1cc2ncc(-c3cc(F)c(N)nc3F)n2cc1S(=O)(=O)C(C)(C)C [Example 170, (S)-1-((3-(6-amino-2,5-difluoropyridin-3-yl)-6-(tert-butylsulfonyl)imidazo[1,2-a]pyridin-7-yl)oxy)propan-2-ol]	50 to 250 nM	> 80%	1 to 2.5 nM	1 to 2.5 nM
